The numbers were not newly measured in US20190249218A1, “Method, Medium and Kit for Detecting Multiple Aminoglycoside Resistance Including 16S rRNA Methylase Mediated Resistance in Gram-Negative Bacteria” (priority 2016, published 2019), which cites them from elsewhere.

In series [1] the test system is 16S rRNA methylase producers. The note with it: reference (13); cited from earlier work.
The subject of series [2] is aminoglycoside modifying enzymes such as the nucleotidyl, acetyl and phosphoryl enzymes. The note with it: reference (12); cited from earlier work.

Turning to `CN[C@@H]1[C@@H](O)[C@@H](O[C@@H]2[C@@H](O)[C@H](O[C@H]3OC(CNCCO)=CC[C@H]3N)[C@@H](N)C[C@H]2NC(=O)[C@@H](O)CCN)OC[C@]1(C)O` [Plazomicin], the “activity against 16S rRNA methylase producers” value in series [1] is “inactive”. The “activity against aminoglycoside modifying enzymes” value in series [2] is “active”.
